Assay results published in patent US6194437A (Warner-Lambert Company, priority 1999, dated 2001).
pKi: −log10 of the molar value.

How the values were obtained:
[1] = biological target: T1, cloned human NMB-preferring receptor (BB1) (Homo sapiens, UniProt P28336); experiment: Receptor binding assay, cloned human NMB-preferring receptor (BB1), [125I][Tyr4]bombesin displacement; settings: CHO-K1 cell membranes, 60 minutes incubation
T1 construct: expressed in transfected cells
Description: (§1) For binding experiments, cells were harvested by trypsinization, and stored frozen at -70° C. in Ham's F12 culture medium containing 5% DMSO until required. On the day of use, cells were thawed rapidly, diluted with an excess of culture medium, and centrifuged for 5 minutes at 2000 g. Cells were resuspended in 50 mM Tris-HCl assay buffer (pH 7.4 at 21° C., containing 0.02% BSA, 40 μg/ml bacitracin, 2 μg/mL chymostatin, 4 μg/mL leupeptin, and 2 μM phosphoramidon), counted, and polytronned (setting 5, 10 sec) before centrifuging for 10 minutes at 28,000 g. The final pellet was resuspended in assay buffer to a final cell concentration of 1.5×10^5 /mL. […] Radioactivity bound was determined using a gamma counter.

[2] = biological target: T2, cloned human GRP-preferring receptor (BB2) (Homo sapiens, UniProt P30550); experiment: Receptor binding assay, cloned human GRP-preferring receptor (BB2), [125I][Tyr4]bombesin displacement; settings: CHO-K1 cell membranes, 90 minutes incubation
T2 construct: expressed in transfected cells
Description: as §1, with “The compounds of the invention have been evaluated in receptor binding assays which measure the affinity of the novel compounds in a cloned human NMB-preferring receptor (BB1) assay and in a cloned human GRP-preferring receptor (BB2) assay. Protocol for Binding Assays […] For” for “For”

[3] = biological target: T3, cloned human NMB-preferring receptors expressed in CHO cells (Homo sapiens, UniProt P28336); experiment: Measurement of intracellular calcium levels ([Ca2+]i mobilization, Fura-2) in CHO cells; assay type: cell-based; settings: NMB-preferring receptor (BB1), read-out: [Ca2+]i Mobilization KE
T3 construct: functional calcium (Fura-2) and Cytosensor acidification assays
Description: (§2) The compounds of the invention have been tested in in vitro functional assays using cloned human NMB-preferring receptors expressed in CHO cells.
(§3) Protocols for functional assays:
1. Measurement of intracellular calcium levels
Culture of Chinese hamster ovary cells
Chinese hamster ovary cells were routinely grown as monolayers in Ham's F12 nutrient mixture supplemented with 10% FBS and […], and maintained at 37° C. under 5% CO2. Cells were passaged every 3 to 4 days. At each passaging, cells were seeded at a density of 3 to 6 million per 175 cm^2 flask. […]
Plated cells were incubated with 2 μM Fura-2-AM for between 45 and 120 minutes at 25° C. to 29° C. […] Single coverslips were then mounted in a chamber on top of an inverted fluorescence microscope and perfused with a Krebs-Hepes assay buffer (composition in mM: NaCl 118, KCl 4.7, MgSO4 1.2, CaCl^2 1.2, KH^2 PO^4 1.2, Hepes 10, glucose 11, pH 7.2 at 37° C.) {332}.
Measurements of [Ca^2+ ]^i in individual cells were made from the fluorescence ratio (excitations […] for Fura-2) using a specially designed filter wheel assembly, CCD camera or photomuliplier tubes, and specially designed suites of software (MAGICAL OR phocal, Applied Imaging, Sunderland, UK) which samples emission following excitation at different wavelengths at regular intervals. […]

[4] = biological target: T3, cloned human NMB-preferring receptors expressed in CHO cells; experiment: Measurement of extracellular acidification (CYTOSENSOR) in CHO-NMB cells; assay type: cell-based; settings: NMB-preferring receptor (BB1), antagonist 30 minutes prior to agonist, 37° C.
Text: as §2, §3
2. Measurement of extracellular acidification (CYTOSENSOR)
This acidification rate is detected as a change in potential across a silicon light addressable sensor, during periods of media cessation (McConnell, et al., 1992).
CHO-NMB Cells seeded on polycarbonate microporous capsule cups were placed insensor chambers at 37° C. inside the microphysiometer, and maintained by a flow of nonbuffering Ham's F12 nutrient media (growth media without NaHCO3, pH 7.3-7.4) at approximately 120 μL/min. The flow was halted for 22 seconds at the end of each 2 minute repeated cycle, and the rate of acidification (μ volts/sec) measured for 15 seconds during that period.
Agonists were introduced sequentially every 28 to 30 minutes to the perfusing media, 20 seconds before flow-off periods, and removed after two rate measurements via the automatic valve-switch.
The effects of various antagonists were determined after continuous perfusion 30 minutes prior to, and throughout the application of agonists. All agents were applied at the working pH of the media.

T3 sequence (P28336 whole entry): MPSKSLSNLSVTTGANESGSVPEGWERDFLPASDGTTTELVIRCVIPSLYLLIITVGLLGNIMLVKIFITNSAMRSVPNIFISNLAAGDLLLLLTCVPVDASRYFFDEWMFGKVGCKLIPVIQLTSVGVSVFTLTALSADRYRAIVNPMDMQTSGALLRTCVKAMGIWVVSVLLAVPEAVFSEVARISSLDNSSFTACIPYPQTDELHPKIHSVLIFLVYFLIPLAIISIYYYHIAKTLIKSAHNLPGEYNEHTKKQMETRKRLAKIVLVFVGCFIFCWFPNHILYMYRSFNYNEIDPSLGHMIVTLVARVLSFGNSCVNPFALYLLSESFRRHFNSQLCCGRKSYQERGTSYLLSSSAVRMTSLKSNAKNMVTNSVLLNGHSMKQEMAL
T1 sequence (P28336 whole entry): as above
T2 sequence (P30550 whole entry): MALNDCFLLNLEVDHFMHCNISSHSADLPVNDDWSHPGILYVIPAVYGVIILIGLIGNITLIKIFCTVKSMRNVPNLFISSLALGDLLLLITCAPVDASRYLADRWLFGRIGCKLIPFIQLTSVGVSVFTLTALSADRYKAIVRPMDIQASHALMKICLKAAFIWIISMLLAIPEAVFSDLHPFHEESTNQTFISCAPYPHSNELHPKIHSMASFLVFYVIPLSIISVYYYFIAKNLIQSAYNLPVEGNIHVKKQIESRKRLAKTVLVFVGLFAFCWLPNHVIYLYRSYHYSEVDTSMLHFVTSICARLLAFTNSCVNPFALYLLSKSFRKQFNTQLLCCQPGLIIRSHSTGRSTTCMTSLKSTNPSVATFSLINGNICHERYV

| SMILES | pKi [1] | pKi [2] | Kb [3] | Acidification Response appKB [4] |
| --- | --- | --- | --- | --- |
| CC(C)c1cccc(C(C)C)c1NC(=O)N[C@@](C)(Cc1c[nH]c2ccccc12)C(=O)NCC1(c2ccccn2)CCCCC1 [Example 1, 2-[3-(2,6-Diisopropyl-phenyl)-ureido]-3-(1H-indol-3-yl)-2-methyl-N-(1-pyridin-2-yl-cyclohexylmethyl)-propionamide] | 8.30 | < 5.00 | 18 nM | 7.6 |
| C[C@@](Cc1c[nH]c2ccccc12)(NC(=O)Nc1ccc([N+](=O)[O-])cc1)C(=O)NCC1(c2ccccn2)CCCCC1 [Example 14] | 9.82 | 7.72 | 1.2 nM | 1.0 |
